# Reference: patent publication US20240390382A1, “METHOD FOR TREATING CANCER” (THE CHILDREN'S MEDICAL CENTER CORPORATION, priority 2021, published 2024)
# Entries after “also recorded” stand apart in the source; their conditions may differ.
# Experiments:
# [1] = system: CTR9 edited CD34+HSPCs; assay: HSC phenotyping (flow cytometry) of CTR9 edited CD34+ HSPCs, chemical rescue experiment; assay type: cell-based, human; conditions: inhibitor used at the concentration of IC50, vs DMSO
# Procedure: (§1) HEK293T cells are cultured in DMEM supplemented with 10% FBS and 1× penicillin/streptomycin. Human CD34 HSPCs were purchased from Fred Hutchinson Cancer Institute and cultured in StemSpan serum free culture medium (StemCell Technologies) supplemented with 1×CC100, 2 mM L-glutamine, 100 ng/mL TPO, 1×UM171 and 1× penicillin/streptomycin. For RNP based CRISPR editing of CD34+HSPCs, chemically synthesized gRNA and Cas9 protein were mixed and set at room temperature for 10 mins to allow the formation of deliverable RNP. The assembled RNP complexes were then delivered into CD34+HSPCs by Lonza 4D Nucleofector with program DZ-100. 48-72 hrs after nucleofection, cells were harvested for genomic DNA and the edited region was PCR amplified and the editing efficiency was analyzed by the ICE analysis from Synthego. Edited CD34+HSPCs were allowed to expand in the culture medium and harvested twice at day 3 and day 6 post-nucleofection. Harvested cells were washed in cold PBS and stained by HSC phenotyping antibody cocktail, which is composed of Brilliant Violet 421 anti-CD34, APC-H7 anti-CD45RA, PE-Cy7 anti-CD90, BB700 anti-CD133, PE anti-EPCR and APC anti-ITGA3 in ice cold FACS buffer (PBS+2% FBS) at 1:60 for 30 minutes in ice. Stained cells were then analyzed by BD LSRII flow cytometer. For the chemical rescue experiment, CDK9 inhibitors (LDCO000067 and AZD4573) and the YEATS domain inhibitor of ENL/ILLT3 (SR-0813) were used at the concentration of IC50.
# [2] = system: key leading edge genes (MLLT3 regulated) in CTR9 edited cells; assay: qRT-PCR analysis of key leading edge genes in CTR9 edited cells; assay type: cell-based, human; conditions: two independent guides, inhibitor at the concentration of IC50, vs DMSO
# Procedure: as §1, with “For the chemical rescue experiment, CDK9 inhibitors (LDCO000067 and AZD4573) and the YEATS domain inhibitor of ENL/ILLT3 (SR-0813) were used at the concentration of IC50.” left out
# RNA from HSPCs was harvested by Qiagen RNeasy kit and quantified by nanodrop. […]
smiles,measurement,setting,value
O=C(NC1CCC1)c1ccc2nc(-c3cccc(NS(=O)(=O)NCCN4CCCCC4)c3)cn2c1 [SR-0813],CTR9-perturbation-mediated HSC expansion (partial loss of CTR9),[1]; CTR9 edited CD34+ HSPCs,rescues HSC expansion phenotype; also recorded: completely suppressed
same,impact on the bulk HSPC population (CD34+CD45RA-),[1]; primary human HSPCs,without a major impact on the bulk HSPC population
same,phenotypic LT- and ST-HSC expansion,[1]; primary human HSPCs,suppression of phenotypic LT- and ST-HSC expansion occurred
same,expression of key upregulated target genes (leading edge genes),[2],downregulated many of the key upregulated target genes
